Reference: the NIST ThermoML archive (doi:10.1016/j.fluid.2016.02.035)

Test: mn = molality of the nth substance listed, in mol/kg
Conditions: 101 kPa, Liquid; for speed of sound: Sing-around technique in a fixed-path interferometer; for mass density: Vibrating tube method

CCCC[N+](CCCC)(CCCC)CCCC.[Br-] [tetrabutylammonium bromide] + O
Conditions | mass density, 293.15 K [kg/m3] | mass density, 298.15 K [kg/m3] | mass density, 303.15 K [kg/m3] | speed of sound, 293.15 K [m/s] | speed of sound, 298.15 K [m/s] | speed of sound, 303.15 K [m/s]
m1 = 0.0015 | 998.245 | 997.085 | 995.686 | 1483.3 | 1497.3 | 1509.6
m1 = 0.0047 | 998.318 | 997.156 | 995.754 | 1484.1 | 1498.2 | 1510.3
m1 = 0.0061 | 998.352 | 997.187 | 995.785 | 1484.6 | 1498.6 | 1510.7
m1 = 0.013 | 998.509 | 997.335 | 995.926 | 1486.1 | 1500 | 1512.1
m1 = 0.0183 | 998.632 | 997.458 | 996.041 | 1487.7 | 1501.4 | 1513.3
m1 = 0.026 | 998.809 | 997.626 | 996.204 | 1489.5 | 1503.1 | 1514.9
m1 = 0.031 | 998.934 | 997.744 | 996.318 | 1490.9 | 1504.3 | 1516.1
m1 = 0.0492 | 999.359 | 998.14 | 996.704 | 1495.1 | 1508.4 | 1519.8
m1 = 0.0796 | 1000.08 | 998.844 | 997.37 | 1502.6 | 1515.2 | 1526.2
m1 = 0.0997 | 1000.55 | 999.297 | 997.802 | 1507.5 | 1519.7 | 1530.3
m1 = 0.1118 | 1000.85 | 999.574 | 998.068 | 1510.4 | 1522.4 | 1532.8
m1 = 0.1291 | 1001.26 | 999.966 | 998.443 | 1514.5 | 1526.2 | 1536.2
m1 = 0.1464 | 1001.68 | 1000.37 | 998.826 | 1518.5 | 1529.9 | 1539.7
m1 = 0.1626 | 1002.06 | 1000.73 | 999.177 | 1522.2 | 1533.3 | 1542.8
m1 = 0.1952 | 1002.85 | 1001.49 | 999.897 | 1529.5 | 1540.1 | 1548.9
m1 = 0.2309 | 1003.71 | 1002.3 | 1000.67 | 1537.5 | 1547.3 | 1555.6
m1 = 0.2732 | 1004.73 | 1003.27 | 1001.6 | 1546.5 | 1555.7 | 1563.3
m1 = 0.3073 | 1005.55 | 1004.05 | 1002.33 | 1553.8 | 1562.3 | 1569.3
m1 = 0.3449 | 1006.43 | 1004.88 | 1003.12 | 1561.7 | 1569.5 | 1575.8
m1 = 0.5437 | 1011.1 | 1009.3 | 1007.29 | 1599.5 | 1603.7 | 1606.7
m1 = 0.7712 | 1016.12 | 1014.01 | 1011.73 | 1636 | 1636.3 | 1635.7
